We go through 1 molecule from patent US7175872B2, “Pyridinium-Betain compounds for use as taste modulators” (Nestec S.A., priority 2002, dated 2007).

“Also recorded” adds a separate entry of the source. Structures can show the parent of a compound that is named as a salt.

Holding throughout (assay type): in vivo
The test system of one experiment is sweet taste of glucose. Briefly: Sweet taste detection threshold of glucose/Pyridinium-Betaine mixtures (triangle test, sensory panel). As to conditions: equimolar mixture with glucose; for Threshold decrease: vs glucose in water 50.0 mmol/L. The protocol:
• Sensory panel training: […] Sensory analyses were performed in a sensory panel room at 22-25° C. on three different sessions. • Taste thresholds: The taste thresholds of the tastants or mixtures containing basic tastants plus Pyridinium-Betains were determined in a triangle test using Evian® mineral water as the solvent at a defined pH ([…] and H.-D. Belitz, Z. Lebensm. Unters. Forsch. 1975, 159, 65-72). The samples (3 mL) were presented in order of increasing concentrations (serial 1:1 dilutions). The threshold values evaluated in two different sessions were averaged. […] The taste intensities of aqueous (Evian®) solutions containing a basic tastant, such as glucose and MSG, for example, in constant concentrations and the compounds of the general formula (A), for example […], in various concentrations were compared with those of a solution containing the basic tastant only. To achieve this, triangle tests were performed with two glass vials containing the basic tastant in constant concentrations, and one glass vial containing a stepwise 1:1-diluted mixture of basic […]. […] The relative taste strength (taste enhancing factor) of a mixture containing the basic […] was related to the basic tastants glucose, MSG, or other tastants, respectively, as standard substances, and was determined as the ratio of the concentrations c of iso-intensely tasting solutions of the basic tastant, such as glucose (glc), and the mixture containing tastant plus Pyridinium-Betain, […])=[…] This taste enhancing effect is illustrated in examples. The sweet taste thresholds of equimolar mixtures of sweet tasting compounds and various Pyridinium-Betaines were determined by a triangle test using EVIAN® mineral water as the solvent. The sensorial evaluations were performed at different pH values. The equimolar mixture of […] and sucrose at pH 7.0 was evaluated with a 4-fold lower sweet threshold concentration than pure sucrose (Table 1). […] is able to reduce the sweet threshold of glucose 16-fold at pH 7.0 and pH 9.0, whereas at pH 5.0 a gain the sweet taste perception […] (Table 2). […] Using the dipeptide derivative (S)-[…] as a taste-enhancer leads to a 16-fold threshold reduction compared to glucose.

Another experiment deals with salty taste of NaCl. Briefly: Salt-intensity ranking of NaCl/Pyridinium-Betaine mixtures by sensory panel. As to conditions: 20 mmol/L each, pH 7.0; scale 0 (not salty) to 5 (very salty), reference NaCl-solution ranked as 1. The text has this:
The salt-intensities of various NaCl/Pyridinium-Betaine mixtures (20 mmol/L each) were compared to a 20 mmol/L NaCl standard solution. The sensory panel was asked to rank the salt-intensities of these solutions on a scale from 0 (not salty) to 5 (very salty), while the reference NaCl-solution was ranked as 1. As listed in Table 6, the most intense salty taste was found in the solution containing NaCl and Alapyridaine, as well as in the triple mixture with L-arginine. A slight impact was found for Argpyridaine and L-arginine.

A further experiment concerns umami taste of MSG. Briefly: Iso-intensity: relative umami taste of MSG/Alapyridaine mixtures. To be noted: 1.5 mmol/kg MSG and 6.0 mmol/kg Alapyridaine vs 1.5 mmol/kg MSG. On the procedure: • Sensory panel training: […] Sensory analyses were performed in a sensory panel room at 22-25° C. on three different sessions. • Taste thresholds: The taste thresholds of the tastants or mixtures containing basic tastants plus Pyridinium-Betains were determined in a triangle test using Evian® mineral water as the solvent at a defined pH ([…] and H.-D. Belitz, Z. Lebensm. Unters. Forsch. 1975, 159, 65-72). The samples (3 mL) were presented in order of increasing concentrations (serial 1:1 dilutions). The threshold values evaluated in two different sessions were averaged. […] The taste intensities of aqueous (Evian®) solutions containing a basic tastant, such as glucose and MSG, for example, in constant concentrations and the compounds of the general formula (A), for example […], in various concentrations were compared with those of a solution containing the basic tastant only. […] The relative taste strength (taste enhancing factor) of a mixture containing the basic […] was related to the basic tastants glucose, MSG, or other tastants, respectively, as standard substances, and was determined as the ratio of the concentrations c of iso-intensely tasting solutions of the basic tastant, such as glucose (glc), and the mixture containing tastant plus Pyridinium-Betain, […])=[…] […]

For the next experiment, the system named is sweet taste of sucrose. Briefly: Sweet taste detection threshold of sucrose/Pyridinium-Betaine mixtures (triangle test, sensory panel). On the set-up: key to Threshold decrease: fold decrease of sweet threshold vs pure sucrose. To be noted: equimolar mixture with sucrose; for Threshold decrease: vs sucrose in water 12.5 mmol/L. The protocol:
• Sensory panel training: […] Sensory analyses were performed in a sensory panel room at 22-25° C. on three different sessions. • Taste thresholds: The taste thresholds of the tastants or mixtures containing basic tastants plus Pyridinium-Betains were determined in a triangle test using Evian® mineral water as the solvent at a defined pH ([…] and H.-D. Belitz, Z. Lebensm. Unters. Forsch. 1975, 159, 65-72). The samples (3 mL) were presented in order of increasing concentrations (serial 1:1 dilutions). The threshold values evaluated in two different sessions were averaged. […] The taste intensities of aqueous (Evian®) solutions containing a basic tastant, such as glucose and MSG, for example, in constant concentrations and the compounds of the general formula (A), for example […], in various concentrations were compared with those of a solution containing the basic tastant only. To achieve this, triangle tests were performed with two glass vials containing the basic tastant in constant concentrations, and one glass vial containing a stepwise 1:1-diluted mixture of basic […]. […] The relative taste strength (taste enhancing factor) of a mixture containing the basic […] was related to the basic tastants glucose, MSG, or other tastants, respectively, as standard substances, and was determined as the ratio of the concentrations c of iso-intensely tasting solutions of the basic tastant, such as glucose (glc), and the mixture containing tastant plus Pyridinium-Betain, […])=[…] This taste enhancing effect is illustrated in examples. The sweet taste thresholds of equimolar mixtures of sweet tasting compounds and various Pyridinium-Betaines were determined by a triangle test using EVIAN® mineral water as the solvent. The sensorial evaluations were performed at different pH values. The equimolar mixture of […] and sucrose at pH 7.0 was evaluated with a 4-fold lower sweet threshold concentration than pure sucrose (Table 1).

Consider `CC(C(=O)[O-])[n+]1cc(O)ccc1CO` (centres unmarked) [Alapyridaine, N-(1-carboxyethyl)-3-hydroxy-6-hydroxymethyl-pyridinium inner salt], for which the Sweet detection threshold amounted to 6.0 mmol/kg water with sweet taste of glucose (pH 5.0); 3.0 mmol/kg water in the experiment with sweet taste of glucose (pH 7.0); 3.0 mmol/kg water in the experiment with sweet taste of glucose (pH 9.0); 3.0 mmol/kg water in the experiment with sweet taste of sucrose (pH 5.0); 3.0 mmol/kg water with sweet taste of sucrose (pH 7.0); 1.5 mmol/kg water with sweet taste of sucrose (pH 9.0). The Taste quality result with sweet taste of glucose (pH 5.0) is listed as “sweet/”; with sweet taste of glucose (pH 7.0) it was “sweet”; in the experiment on sweet taste of glucose (pH 9.0), “sweet”; in the experiment on sweet taste of sucrose (pH 5.0), “sour taste; also recorded: sweet/”; in the experiment with sweet taste of sucrose (pH 7.0) it was “sweet”; with sweet taste of sucrose (pH 9.0) it was “sweet”. Further, the Threshold decrease with sweet taste of glucose (pH 5.0) is listed as 8.0; in the experiment on sweet taste of glucose (pH 7.0) it was 16; with sweet taste of glucose (pH 9.0) it was 16; in the experiment with sweet taste of sucrose (pH 5.0) it was 4.0; in the experiment on sweet taste of sucrose (pH 7.0) it was 4; with sweet taste of sucrose (pH 9.0), 8. For the same molecule, the Salt-intensity with salty taste of NaCl was 0.0. For the same molecule, the “maximum umami-taste intensity (iso-intensity)” value in the experiment with umami taste of MSG was 4 -fold.
